{"source": "paper PMC12612990", "about": "“PNA5, a glycosylated angiotensin-(1−7) mas receptor agonist for vascular dementia: A two species toxicology and toxicokinetic study” (Toxicology Reports, 2025)", "key": {"[1]": {"assay": "Toxicokinetics of PNA5 in Beagle dog plasma", "conditions": "Beagle, dog, plasma, sc, 20 mg/kg/day, dogs, 20 mg/kg/day (NOAEL), day 28; for AUC(0-t): mean AUC0–2hr; for Cmax: mean Cmax", "procedure": "(§1) Toxicokinetic (TK) of PNA5 was obtained from plasma following a single and repeated subcutaneous injection administration of PNA5 once daily for 28 days. Blood samples were collected on days 1 and 28 at the following time points: pre-dose and at approximately 5, 15, 30, 60, and 120 min post-dose (equivalent to 0.083, 0.25, 0.5, 1, and 2 h).\n(§2) For the rat study, a total of 6 rats for each sex were assigned randomly to treatment groups 2–4 (those treated with PNA5). Three rats per sex were assigned to group 1 (vehicle control). Rats were sampled in satellite groups; rats' blood was taken at alternating time points, resulting in a total n = 3 per time point for six animals. For the dog study, three animals per sex were assigned to group 2 and group 3, and five animals per sex were assigned to group 1 and group 4. Blood was collected from canines via venipuncture.\n(§3) Blood was collected in heparinized tubes containing a protease inhibitor cocktail consisting of 4 mM 0-phenanthroline, 1.2 mM pepstatin A, and 0.5 M EDTA. Blood samples were centrifuged for 15 min at 2500 x g at room temperature. Plasma was transferred into pre-cooled, pre-labeled collection tubes, frozen immediately in liquid nitrogen/dry ice, and stored at −80 °C until analysis.\n(§4) PNA5 levels were analyzed using ultra-high performance liquid chromatography (UHPLC) with tandem mass spectrometric (MS/MS) detection. Precision and accuracy, reproducibility, selectivity, carryover, recovery, matrix effects, dilution integrity, hemolysis, stock stability, and matrix stability were assessed prior to initiation of the validation. Samples (5 µL) were injected onto the column and separated using gradient elution. Target compounds were quantified by summing the height of previously identified fragment peaks in the LC-MS [3] spectra. The serum concentrations were estimated using a calibration curve, accounting for the dilution factors and the probe recoveries for each experiment. Standards were matrix-matched to samples and underwent the same sample preparation steps.\n(§5) A noncompartmental analysis was used for parameter estimation. For PNA5 in plasma, the extravascular model was used for parameter estimation. For the rat study, all parameters were generated from PNA5 individual concentrations in plasma from days 1 and 28. Parameters were estimated using nominal dose levels and nominal sampling times relative to the dose administration. Plasma concentration values obtained at the pre-dose time point were used as the concentration at time 0 on days 1 and 28. For the dog study, all parameters were generated from PNA5 individual concentrations in plasma from days 1 and 28. Parameters were estimated using nominal dose levels and nominal sampling times relative to dose administration. Plasma concentration values obtained at the pre-dose time point were used as the concentration at time 0 on days 1 and 28. For Beagle dogs, concentration values reported as below the limit of quantitation (< 5 ng/mL) were assigned a value of 0.\n(§6) The toxicokinetic parameters evaluated included the area under the curve of the plasma PNA5 concentration against time from time 0 (pre-dose) to 2 h (post-dose) (AUC0–2hr), the maximum plasma concentration (Cmax), time to maximum plasma concentration (Tmax), elimination rate (Kel), and the half-life. The area under the concentration vs. time curve was calculated using the linear trapezoidal method with linear interpolation for all profiles with at least three consecutive quantifiable concentrations. Kel was calculated from the slope using exponential regression of concentration versus time (Excel); exponential interpolations for all profiles include at least three concentrations plotted against time. Time 0 values and all concentrations listed as zero were excluded from Kel calculations. The half-life was calculated from Kel via the following equation: half-life Ln(2)/Kel."}, "male Sprague Dawley rats [2]": {"system": "male Sprague Dawley rats", "assay": "Neurobehavioral evaluations after a single subcutaneous dose in male Sprague Dawley rats", "format": "in vivo, rat", "conditions": "single s.c. dose 1, 5 or 40 mg/kg, n = 8 per group", "method": "To evaluate the effects of PNA5 when administered subcutaneously on the central nervous system’s autonomic, neuromuscular, sensorimotor, and behavioral domains, neurobehavioral evaluations were performed in male Sprague Dawley rats treated with PNA5 at 0, 1, 5, or 40 mg/kg (n = 8 males per group). The neurobehavioral evaluations consisted of assessments of the central nervous system for activity, excitability, autonomic function, neuromuscular function, sensorimotor responses, and physiological function."}, "[3]": {"assay": "Toxicokinetics of PNA5 in Sprague Dawley rat plasma", "conditions": "for AUC(0-t) / Cmax / half-life / Tmax: both, Sprague Dawley, rat, sc; for AUC(0-t) / Cmax / half-life / Tmax / Kel: plasma; for AUC(0-t): AUC0–2, rats, n = 6, linear trapezoidal; for AUC(0-t) / Cmax / half-life / Kel: mean ± SD; for Cmax: Sprague Dawley rats, n = 6, UHPLC-MS/MS, noncompartmental; for half-life: n = 6, Ln(2)/Kel; for AUC0–2hr averaged accumulation ratio: day 1 to day 28, sexes combined; for F:M AUC0–2hr ratio: printed as on day 1; for fold increase in AUC0–2hr for a 40-fold increase in dose / fold increase in Cmax for a 40-fold increase in dose: 1 to 40 mg/kg/day; for Kel: n = 6, exponential regression", "procedure": "as §1, §2, §3, §4, §5, §6"}, "male Sprague Dawley rats [4]": {"system": "male Sprague Dawley rats", "assay": "Pulmonary safety parameters after a single subcutaneous dose in male Sprague Dawley rats", "format": "in vivo, rat", "conditions": "single s.c. dose 1, 5 or 40 mg/kg, n = 8 per group", "method": "Respiratory rate, tidal volume, and calculated minute volume were measured in male Sprague Dawley rats to measure pulmonary safety parameters after a single subcutaneous dose of 0, 1, 5, or 40 mg/kg PNA5 (n = 8 males per group)."}}, "note": "Peptide text beside a SMILES is read from it. * marks the point of attachment. βGlc = OC[C@H]1O[C@@H](*)[C@H](O)[C@@H](O)[C@@H]1O"}
{"compound": "CC[C@H](C)[C@H](NC(=O)[C@H](Cc1ccc(O)cc1)NC(=O)[C@@H](NC(=O)[C@H](CCCNC(=N)N)NC(=O)[C@@H](N)CC(=O)O)C(C)C)C(=O)N[C@@H](Cc1c[nH]cn1)C(=O)N[C@@H](CO[C@@H]1O[C@H](CO)[C@@H](O)[C@H](O)[C@H]1O)C(N)=O", "note": "[PNA5, Ang-1–6-Ser-O-Glu-NH2] (H-DRVYIHS(βGlc)-NH2)", "values": [{"measurement": "AUC(0-t)", "setting": "[1]; female, females, females", "value": 1150, "unit": "ng·h/mL"}, {"measurement": "Cmax", "setting": "[1]; female, females, females", "value": 1140, "unit": "ng/mL"}, {"measurement": "AUC(0-t)", "setting": "[1]; male, males, males", "value": 1000, "unit": "ng·h/mL"}, {"measurement": "Cmax", "setting": "[1]; male, males, males", "value": 1100, "unit": "ng/mL"}, {"measurement": "neurobehavioral assessments of the central nervous system (activity, excitability, autonomic, neuromuscular, sensorimotor, physiological function)", "setting": "male Sprague Dawley rats [2]", "value": "nor were there observed PNA5-related effects"}, {"measurement": "AUC(0-t)", "setting": "[3]; 1 mg/kg/day, s.c. 1 mg/kg/day, day 1, sexes combined", "value": "0.263 ± 0.0315", "unit": "ng·h/mL"}, {"measurement": "AUC(0-t)", "setting": "[3]; 1 mg/kg/day, s.c. 1 mg/kg/day, day 28, sexes combined", "value": "0.464 ± 0.0741", "unit": "ng·h/mL"}, {"measurement": "Cmax", "setting": "[3]; 1 mg/kg/day, s.c. once daily 1 mg/kg/day, day 1, sexes combined", "value": "0.591 ± 0.25", "unit": "ng/mL"}, {"measurement": "Cmax", "setting": "[3]; 1 mg/kg/day, s.c. once daily 1 mg/kg/day, day 28, sexes combined", "value": "0.968 ± 0.28", "unit": "ng/mL"}, {"measurement": "half-life", "setting": "[3]; 1 mg/kg/day, rats, s.c. 1 mg/kg/day, day 1, sexes combined", "value": "36 ± 6", "unit": "min"}, {"measurement": "half-life", "setting": "[3]; 1 mg/kg/day, rats, s.c. 1 mg/kg/day, day 28, sexes combined", "value": "30.6 ± 9", "unit": "min"}, {"measurement": "Tmax", "setting": "[3]; 1 mg/kg/day, rats, s.c. 1 mg/kg/day, day 1, sexes combined, average (range lowest to highest)", "value": 6.6, "unit": "min"}, {"measurement": "Tmax", "setting": "[3]; 1 mg/kg/day, rats, s.c. 1 mg/kg/day, day 28, sexes combined, average (range lowest to highest)", "value": 10.2, "unit": "min"}, {"measurement": "AUC(0-t)", "setting": "[3]; 5 mg/kg/day, s.c. 5 mg/kg/day, day 1, sexes combined", "value": "1.55 ± 0.789", "unit": "ng·h/mL"}, {"measurement": "AUC(0-t)", "setting": "[3]; 5 mg/kg/day, s.c. 5 mg/kg/day, day 28, sexes combined", "value": "2.86 ± 1.72", "unit": "ng·h/mL"}, {"measurement": "Cmax", "setting": "[3]; 5 mg/kg/day, s.c. once daily 5 mg/kg/day, day 1, sexes combined", "value": "3.37 ± 1.99", "unit": "ng/mL"}, {"measurement": "Cmax", "setting": "[3]; 5 mg/kg/day, s.c. once daily 5 mg/kg/day, day 28, sexes combined", "value": "5.35 ± 2.77", "unit": "ng/mL"}, {"measurement": "half-life", "setting": "[3]; 5 mg/kg/day, rats, s.c. 5 mg/kg/day, day 1, sexes combined", "value": "25.2 ± 7.8", "unit": "min"}, {"measurement": "half-life", "setting": "[3]; 5 mg/kg/day, rats, s.c. 5 mg/kg/day, day 28, sexes combined", "value": "22.2 ± 7.8", "unit": "min"}, {"measurement": "Tmax", "setting": "[3]; 5 mg/kg/day, rats, s.c. 5 mg/kg/day, day 1, sexes combined, average", "value": 4.98, "unit": "min"}, {"measurement": "Tmax", "setting": "[3]; 5 mg/kg/day, rats, s.c. 5 mg/kg/day, day 28, sexes combined, average (range lowest to highest)", "value": 11.4, "unit": "min"}, {"measurement": "AUC(0-t)", "setting": "[3]; 40 mg/kg/day, s.c. 40 mg/kg/day, day 1, sexes combined", "value": 16.1, "unit": "ng·h/mL"}, {"measurement": "AUC(0-t)", "setting": "[3]; 40 mg/kg/day, s.c. 40 mg/kg/day, day 28, sexes combined", "value": 29.6, "unit": "ng·h/mL"}, {"measurement": "Cmax", "setting": "[3]; 40 mg/kg/day, s.c. once daily 40 mg/kg/day, day 1, sexes combined", "value": 40.8, "unit": "ng/mL"}, {"measurement": "Cmax", "setting": "[3]; 40 mg/kg/day, s.c. once daily 40 mg/kg/day, day 28, sexes combined", "value": 62.5, "unit": "ng/mL"}, {"measurement": "half-life", "setting": "[3]; 40 mg/kg/day, rats, s.c. 40 mg/kg/day, day 1, sexes combined", "value": "19.8 ± 4.8", "unit": "min"}, {"measurement": "half-life", "setting": "[3]; 40 mg/kg/day, rats, s.c. 40 mg/kg/day, day 28, sexes combined", "value": "23.4 ± 3.6", "unit": "min"}, {"measurement": "Tmax", "setting": "[3]; 40 mg/kg/day, rats, s.c. 40 mg/kg/day, day 1, sexes combined, average (range lowest to highest)", "value": 8.4, "unit": "min"}, {"measurement": "Tmax", "setting": "[3]; 40 mg/kg/day, rats, s.c. 40 mg/kg/day, day 28, sexes combined, average (range lowest to highest)", "value": 10.2, "unit": "min"}, {"measurement": "AUC0–2hr averaged accumulation ratio", "setting": "[3]; rats, 1 mg/kg/day", "value": 1.76}, {"measurement": "F:M AUC0–2hr ratio", "setting": "[3]; rats, 5 mg/kg/day", "value": "0.66–1.58"}, {"measurement": "AUC0–2hr averaged accumulation ratio", "setting": "[3]; rats, 40 mg/kg/day", "value": 1.84}, {"measurement": "F:M AUC0–2hr ratio", "setting": "[3]; rats, 40 mg/kg/day", "value": "1.16–1.32"}, {"measurement": "fold increase in AUC0–2hr for a 40-fold increase in dose", "setting": "[3]; rats, day 1, sexes combined", "value": "~61.22", "unit": "fold"}, {"measurement": "fold increase in Cmax for a 40-fold increase in dose", "setting": "[3]; rats, day 1, sexes combined", "value": "~69.09", "unit": "fold"}, {"measurement": "fold increase in AUC0–2hr for a 40-fold increase in dose", "setting": "[3]; rats, day 28, sexes combined", "value": "~63.93", "unit": "fold"}, {"measurement": "fold increase in Cmax for a 40-fold increase in dose", "setting": "[3]; rats, day 28, sexes combined", "value": "~64.56", "unit": "fold"}, {"measurement": "F:M Cmax ratios", "setting": "[3]; rats, day 28, range across doses", "value": "1.24 – 1.37"}, {"measurement": "Kel", "setting": "[3]; rats, s.c. 1 mg/kg/day, day 1, sexes combined", "value": "1.18 ± 0.18, 6 hr–1"}, {"measurement": "Kel", "setting": "[3]; rats, s.c. 5 mg/kg/day, day 1, sexes combined", "value": "1.79 ± 0.67, 6 hr–1"}, {"measurement": "Kel", "setting": "[3]; rats, s.c. 5 mg/kg/day, day 28, sexes combined", "value": "2.08 ± 0.86, 6 hr–1"}, {"measurement": "Kel", "setting": "[3]; rats, s.c. 40 mg/kg/day, day 1, sexes combined", "value": "2.24 ± 0.83, 6 hr–1"}, {"measurement": "Kel", "setting": "[3]; rats, s.c. 40 mg/kg/day, day 28, sexes combined", "value": "1.82 ± 0.28, 6 hr–1"}, {"measurement": "time post-dose up to which PNA5 plasma concentrations were quantifiable", "setting": "[3]; rats, s.c. 1, 5 or 40 mg/kg/day, day 1 and day 28, last sampling time 2 h", "value": "up to 2 h"}, {"measurement": "respiratory rate, tidal volume and calculated minute volume", "setting": "male Sprague Dawley rats [4]", "value": "no effect"}]}
